Results from patent publication US20250214977A1, “STAT6 INHIBITORS AND USES THEREOF” (Kymera Therapeutics, Inc., priority 2024, published 2025).
pIC50: −log10 of the molar value. Where “and” joins values, the source holds several entries; their conditions need not be identical. Equal entries are not always repeated.

system: Phosphorylation of STAT6 in human A549 cells; experiment: Phosphorylated STAT6 (pSTAT6) flow cytometry assay in human A549 cells; assay type: cell-based; details: read-out: STAT6 IL4 pSTAT6 assay in A549 cells: Average IC50
Text: Example 3. Phosphorylated STAT6 (pSTAT6) Flow Cytometry Assay in Human A549 Cells
Phosphorylation of STAT6 in human A549 cells was quantitatively measured using flow cytometry technology.

`CNc1ccc(-c2cc(C3=CCCN(C(=O)CCn4ccnn4)C3)cc3[nH]c(C(=O)N(C)C)cc23)c(C)c1` [Example I-1053] and `CCc1cc(C)ncc1-c1cc(C2=CCCN(C(=O)CCn3cccn3)C2)c(F)c2[nH]c(C(=O)N3CCN(c4nc(C)c(F)cc4OC)CC3)cc12` [Example I-738] cannot be ordered by pIC50: > 7.00 for the first, > 7.00 for the second.

`COc1ccccc1-c1cc(C2=CCCN(C(=O)CCn3ccnn3)C2)c(F)c2[nH]c(C(=O)N3CCN(c4ccnc(Nc5ccc(C#N)cc5)n4)CC3)cc12` [Example I-948] and `CCS(=O)(=O)N1CCN(C(=O)c2cc3c(-c4ccccc4OC)cc(C4=CCCN(C(=O)CCn5ccnn5)C4)c(F)c3[nH]2)CC1` [Example I-980] cannot be ordered by pIC50: > 7.00 for the first, > 7.00 for the second.

Compared with `COc1cc(F)cnc1N1CCN(C(=O)c2cc3c(-c4ccc(-n5nc(C)cc5C)cc4)cc(C4=CCCN(C(=O)CCn5ccnn5)C4)c(F)c3[nH]2)CC1` [Example I-1114], `COc1cnccc1-c1cc(C2=CCCN(C(=O)CCn3ccnn3)C2)c(F)c2[nH]c(C(=O)N3CCN(c4ccccc4OC)CC3)cc12` [Example I-407] is lower in pIC50: > 7.00 for the first, < 4.00 for the second.

`CN(C)C(=O)c1cc2cc(C3=CCCN(C(=O)CCn4ccnn4)C3)cc(-c3ccc4[nH]ncc4c3)c2o1` [Example I-1080] and `CCc1cn[nH]c1N1CCN(C(=O)c2cc3c(-c4cnccc4OC)cc(C4=CCCN(C(=O)CCn5ccnn5)C4)c(F)c3[nH]2)CC1` [Example I-540] cannot be ordered by pIC50: > 7.00 for the first, > 7.00 for the second.

`COc1cc(F)cnc1N1CCN(C(=O)c2cc3c(-c4cccc(O)c4)cc(C4=CCCN(C(=O)CCn5ccnn5)C4)c(F)c3[nH]2)CC1` [Example I-615] and `CCc1cc(C)ncc1-c1cc(C2=CCCN(C(=O)CCn3ccnn3)C2)c(F)c2[nH]c(C(=O)N3Cc4cnn(CC)c4C3)cc12` [Example I-529] cannot be ordered by pIC50: > 7.00 for the first, > 7.00 for the second.

`COc1ccccc1-c1cc(C2=CCCN(C(=O)CCn3ccnn3)C2)c(F)c2[nH]c(C(=O)N3CCOCC3)cc12` [Example I-985] and `COc1ccccc1-c1cc(C2=CCCN(C(=O)CCn3ccnn3)C2)cc2[nH]c(C(=O)N(C)C)cc12` [Example I-1054] cannot be ordered by pIC50: > 7.00 for the first, > 7.00 for the second.

Compared with `CCc1ccncc1-c1cc(C2=CCCN(C(C)=O)C2)c(F)c2[nH]c(C(=O)N3Cc4cnn(C)c4C3)cc12` [Example I-702], `COc1ccccc1-c1cc(C2=CCCN(C(=O)CCn3ccnn3)C2)c(F)c2[nH]c(C(=O)N3CCN(c4nccc(-c5cn(C)c6ccccc56)n4)CC3)cc12` [Example I-906] is higher in pIC50: 4.00 to 5.00 for the first, > 7.00 for the second.

Compared with `COc1cc(F)cnc1N1CCN(C(=O)c2cc3c(-c4ccc(C5(O)CCC5)cc4)cc(C4=CCCN(C(=O)CCn5ccnn5)C4)c(F)c3[nH]2)CC1` [Example I-1146], `CN(C)C(=O)c1cc2c(F)c(C3=CCCN(C(=O)C4Cc5ccccc5CN4C=O)C3)ccc2o1` (stereo not drawn) [Example I-1192] is lower in pIC50: > 7.00 for the first, 5.00 to 6.00 for the second.

Compared with `COc1ccncc1-c1cc(C2=CCCN(C(=O)CCn3ccnn3)C2)c(F)c2[nH]c(C(=O)N3CCN(c4nc(C)ccc4OC)CC3)cc12` [Example I-433], `COc1ccncc1-c1cc(C2=CCCN(C(=O)CCn3ccnn3)C2)c(F)c2[nH]c(C(=O)N3CCN(c4ncc(F)cc4OC)CC3)cc12` [Example I-428] is higher in pIC50: < 4.00 for the first, > 7.00 for the second. The second is the more potent here.

Compared with `CCOC(=O)c1cc2ccc(N3CCN(C(=O)c4cc5c(-c6ccccc6OC)cc(C6=CCCN(C(=O)CCn7ccnn7)C6)c(F)c5[nH]4)CC3)cn2c1` [Example I-903], `COc1ccncc1-c1cc(C2=CCCN(C(=O)CCn3ccnn3)C2)c(F)c2[nH]c(C(=O)N3CCN(c4ccccn4)C(C)C3)cc12` (stereo not drawn) [Example I-568] is higher in pIC50: 6.00 to 7.00 for the first, > 7.00 for the second. The second is the more potent here.

First: COc1cc(F)cnc1N1CCN(C(=O)c2cc3c(/C=C/C4CCCCC4)cc(C4=CCCN(C(=O)CCn5ccnn5)C4)c(F)c3[nH]2)CC1 [Example I-1163]
Second: COc1ccccc1-c1cc(C2=CCCN(C(=O)CCn3ccnn3)C2)c(F)c2[nH]c(C(=O)N3CCNC(=O)CC3)cc12 [Example I-983]
The pIC50 of the first is lower: 6.00 to 7.00 for the first, > 7.00 for the second. The second is the more potent here.

`COc1ccccc1-c1cc(C2=CCCN(C(=O)CCn3ccnn3)C2)c(F)c2[nH]c(C(=O)N3CCNC(=O)[C@@H]3C)cc12` [Example I-996] and `CCc1ccncc1-c1cc(C2=CCCN(C(=O)CCn3ccnn3)C2)c(F)c2[nH]c(C(=O)N3CCN(c4ncc(Cl)cc4OC)CC3)cc12` [Example I-472] cannot be ordered by pIC50: > 7.00 for the first, > 7.00 for the second.

`COc1c(-c2cc(C3=CCCN(C(=O)CCn4ccnn4)C3)c(F)c3[nH]c(C(=O)N4CCN(C5CC5)CC4)cc23)cnc2ccccc12` [Example I-449] and `COc1cc(F)cnc1N1CCN(C(=O)c2cc3c(-c4cc(C)nc(C)c4)cc(C4=CCCN(C(=O)CCn5ccnn5)C4)c(F)c3[nH]2)CC1` [Example I-632] cannot be ordered by pIC50: > 7.00 for the first, > 7.00 for the second.

Compared with `COc1cccnc1N1CCN(C(=O)c2cc3c(-c4cnc5ccccc5c4OC)cc(C4=CCCN(C(=O)CCn5ccnn5)C4)c(F)c3[nH]2)CC1` [Example I-402], `COc1cc(C(F)(F)F)cnc1N1CCN(C(=O)c2cc3c(-c4cnc5ccccc5c4OC)cc(C4=CCCN(C(=O)CCn5ccnn5)C4)c(F)c3[nH]2)CC1` [Example I-446] is higher in pIC50: < 4.00 for the first, 5.00 to 6.00 for the second. The second is the more potent here.

“Methyl 5-(3-(5-(2-(dimethylcarbamoyl)benzofuran-5-yl)-1,2,3,6-tetrahydropyridine-1-carbonyl)-2-formyl-1,2,3,4-tetrahydroisoquinolin-5-yl)pent-4-ynoate [Example I-802]” and `COc1ccccc1-c1cc(C2=CCCN(C(=O)CCn3ccnn3)C2)c(F)c2[nH]c(C(=O)N3CCN(c4cc5cccnc5cc4F)CC3)cc12` [Example I-924] cannot be ordered by pIC50: > 7.00 for the first, > 7.00 for the second.

`COc1cccc(N2CCN(C(=O)c3cc4c(-c5ccccc5OC)cc(C5=CCCN(C(=O)CCn6ccnn6)C5)c(F)c4[nH]3)CC2)n1` [Example I-359] and `COc1ccccc1-c1cc(C2=CCCN(C(=O)CCn3ccnn3)C2)c(F)c2[nH]c(C(=O)N3CCN(c4cncc5cccnc45)CC3)cc12` [Example I-954] cannot be ordered by pIC50: > 7.00 for the first, > 7.00 for the second.

`COc1ccccc1-c1cc(C(=O)N2CCN(c3ncc(F)cc3OC)CC2)cc2cc(C3=CCCN(C(=O)CCn4ccnn4)C3)n(CC(C)C)c12` [Example I-521] and `COc1cccnc1N1CCN(C(=O)c2cc3c(-c4ccc5ncccc5c4OC)cc(C4=CCCN(C(=O)CCn5ccnn5)C4)c(F)c3[nH]2)CC1` [Example I-577] cannot be ordered by pIC50: > 7.00 for the first, > 7.00 for the second.

`CCc1ccncc1-c1cc(C2=CCCN(C(=O)CCn3ccnn3)C2)c(F)c2[nH]c(C(=O)N3CCN(c4ccccc4OC)CC3)cc12` [Example I-471] and `COc1ccncc1-c1cc(C2=CCCN(C(=O)CCn3ccnn3)C2)c(F)c2[nH]c(C(=O)N3CCN(c4ncc(Cl)cc4OC)CC3)cc12` [Example I-458] cannot be ordered by pIC50: > 7.00 for the first, > 7.00 for the second.

First: COc1cccnc1N1CCN(C(=O)c2cc3c(-c4ccccc4C#N)cc(C4=CCCN(C(=O)CCn5ccnn5)C4)c(F)c3[nH]2)CC1 [Example I-573]
Second: CCC1CCCCC1c1cc(C2=CCCN(C(=O)CCn3ccnn3)C2)c(F)c2[nH]c(C(=O)N3CCN(c4ncc(F)cc4OC)CC3)cc12 (single isomer, unassigned) [Example I-1174]
The pIC50 of the first is higher: > 7.00 for the first, 5.00 to 6.00 for the second.

Compared with `COc1c(F)cccc1-c1cc(C2=CCCN(C(C)=O)C2)c(F)c2[nH]c(C(=O)N(C)C)cc12` [Example I-881], `COc1cc(F)cnc1N1CCN(C(=O)c2cc3c(-c4ccc(N5C[C@@H](C)O[C@@H](C)C5)nc4)cc(C4=CCCN(C(=O)CCn5ccnn5)C4)c(F)c3[nH]2)CC1` [Example I-1138] is higher in pIC50: 6.00 to 7.00 for the first, > 7.00 for the second.

`CN(C)C(=O)c1cc2cc(C3=CCCN(C(=O)CCn4ccnn4)C3)cc(-c3ccc4[nH]ccc4c3)c2o1` [Example I-1071] and `COc1ccccc1N1CCN(C(=O)c2cc3c(-c4cccc(F)c4OC)cc(C4=CCCN(C(=O)CCn5ccnn5)C4)c(F)c3[nH]2)CC1` [Example I-567] cannot be ordered by pIC50: > 7.00 for the first, > 7.00 for the second.

`COc1cc(F)cnc1N1CCN(C(=O)c2cc3c(-c4cc(O)cc5ccccc45)cc(C4=CCCN(C(=O)CCn5ccnn5)C4)c(F)c3[nH]2)CC1` [Example I-659] and `COc1ccccc1-c1cc(C2=CCCN(C(=O)CCn3ccnn3)C2)c(F)c2[nH]c(C(=O)N3CCN(c4ncccc4C(F)(F)F)CC3)cc12` [Example I-329] cannot be ordered by pIC50: > 7.00 for the first, > 7.00 for the second.

`Cc1ccc(C#N)cc1-c1cc(C2=CCCN(C(=O)CCn3ccnn3)C2)cc2cc(C(=O)N(C)C)oc12` [Example I-1079] and `COc1ccccc1-c1cc(C2=CCCN(C(=O)CCn3ccnn3)C2)c(F)c2[nH]c(C(=O)N3Cc4c(C)nn(C)c4C3)cc12` [Example I-509] cannot be ordered by pIC50: > 7.00 for the first, > 7.00 for the second.

`COc1cc(F)cnc1N1CCN(C(=O)c2cc3c(-c4cccc5c4CC[C@H]5O)cc(C4=CCCN(C(=O)CCn5ccnn5)C4)c(F)c3[nH]2)CC1` [Example I-658] and `CCn1c(N2CCN(C(=O)c3cc4c(-c5ccccc5OC)cc(C5=CCCN(C(=O)CCn6ccnn6)C5)c(F)c4[nH]3)CC2)nc2ccccc21` [Example I-942] cannot be ordered by pIC50: > 7.00 for the first, > 7.00 for the second.

First: CCc1ccncc1-c1cc(C2=CCC[C@H](C(=O)O)C2)c(F)c2[nH]c(C(=O)N3CCN(c4ncc(F)cc4OC)CC3)cc12 (single isomer, unassigned) [Example I-809]
Second: COc1ccncc1-c1cc(C2=CCCN(C(=O)CCn3ccnn3)C2)c(F)c2[nH]c(C(=O)N3CCN(c4ccc(Cl)cc4OC)CC3)cc12 [Example I-450]
The pIC50 of the first is lower: < 4.00 for the first, > 7.00 for the second.

`CCCOc1ncccc1-c1cc(C2=CCCN(C(=O)CCn3ccnn3)C2)c(F)c2[nH]c(C(=O)N3CCN(c4ncc(F)cc4OC)CC3)cc12` [Example I-652] and `CCc1ccncc1-c1cc(C(=O)N2Cc3cnn(C)c3C2)cc2cc(C3=CCCN(C(=O)CCn4ccnn4)C3)n(CC3CC3)c12` [Example I-727] cannot be ordered by pIC50: > 7.00 for the first, > 7.00 for the second.

With `COc1ccncc1-c1cc(C2=CCCN(C(=O)CCn3ccnn3)C2)c(F)c2[nH]c(C(=O)N3Cc4cnn(C)c4C3)cc12` [Example I-496] the pIC50 was < 4.00.

For `COc1cc(F)cnc1N1CCN(C(=O)c2cc3c(Br)cc(C4=CCCN(C(=O)CCn5ccnn5)C4)c(F)c3[nH]2)CC1` [Example I-806, 1-(5-(4-bromo-7-fluoro-2-(4-(5-fluoro-3-methoxypyridin-2-yl)piperazine-1-carbonyl)-1H-indol-6-yl)-3,6-dihydropyridin-1(2H)-yl)-3-(1H-1,2,3-triazol-1-yl)propan-1-one], the pIC50 was 4.00 to 5.00 and 6.00 to 7.00.
